Reference: patent US9833497B2, “Human originated EGF domain proteins and use of the same” (CHENGDU SOURCEBIO LIMITED-LIABILITY COMPANY, priority 2013, dated 2017)

Columns and labels:
Format in all cases: cell-based
[1] = system: E. coli DH5α; assay: Antibacterial activity: MIC and growth curve against E. coli DH5α in 96-well plate; details: minimal inhibitory concentration against E. coli DH5α; 96-well plate, 5×10^5 CFU/mL, 37° C., judged after 8 h
Outline: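 MIC taken as lowest protein level with no bacterial growth, tracked by A600 every 30 min during 37 °C, 175 rpm culture. Two-fold protein series 50-12.5 μg/mL final, triplicate wells, against 5×10^5 CFU/mL of LB-washed mid-log cells.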

[2] = system: E. coli BL21; assay: MIC against Gram-negative bacteria: E. coli BL21; details: for MIC (μg/mL) E. coli BL21 / MIC: E. coli BL21
Outline: (§1)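 Two-fold serial dilutions of each purified human EGF domain protein, three replicate wells per level, were combined with bacteria at a final 5×10^5 CFU/mL in LB. Cultures were shaken at 175 rpm, 37° C. The MIC was taken as the minimum concentration preventing growth.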

[3] = system: Pseudomonas aeruginosa; assay: MIC against Gram-negative bacteria: Pseudomonas aeruginosa
Outline: as §1

[4] = system: Klebsiella pneumonia; assay: MIC against Gram-negative bacteria: Klebsiella pneumonia
Outline: as §1

[5] = system: Enterobacter cloacae; assay: MIC against Gram-negative bacteria: Enterobacter cloacae
Outline: as §1

[6] = system: Aeromonas hydrophila; assay: MIC against Gram-negative bacteria: Aeromonas hydrophila
Outline: as §1

[7] = system: Citrobacter diversus; assay: MIC against Gram-negative bacteria: Citrobacter diversus
Outline: as §1

[8] = system: Moraxella catarrhalis; assay: MIC against Gram-negative bacteria: Moraxella catarrhalis
Outline: as §1

[9] = system: Proteus mirabilis; assay: MIC against Gram-negative bacteria: Proteus mirabilis
Outline: as §1

[10] = system: Proteus vulgaris; assay: MIC against Gram-negative bacteria: Proteus vulgaris
Outline: as §1

[11] = system: Serratia marcescens; assay: MIC against Gram-negative bacteria: Serratia marcescens
Outline: as §1

[12] = 96-well plate, 5×10^5 CFU/mL, 37° C., 10 h
[13] = P. aeruginosa, 10 h cultivation at 37° C.
[14] = K. pneumonia, 10 h cultivation at 37° C.
[15] = E. cloacae, 10 h cultivation at 37° C.
[16] = A. hydrophila, 10 h cultivation at 37° C.
[17] = C. diversus, 10 h cultivation at 37° C.
[18] = M. catarrhalis, 10 h cultivation at 37° C.
[19] = P. mirabilis, 10 h cultivation at 37° C.
[20] = P. vulgaris, 10 h cultivation at 37° C.
[21] = S. marcescens, 10 h cultivation at 37° C.
[22] = 10 h cultivation at 37° C., 5×10^5 CFU/mL, two-fold serial dilution

Substance: PRT47 (CTCSGHANICHLHTGKCFCTTKGIKGDQCQLCDSENRYVGNPLRGTCYY; listed as Homo sapiens)
- MIC [1]: 12.5 mg/L
- MIC (μg/mL) E. coli BL21 [2, 12]: 25 µg/mL
- MIC (μg/mL) P. aeruginosa ([3]; Pseudomonas aeruginosa, 96-well plate, 5×10^5 CFU/mL, 37° C., 10 h): 12.5 µg/mL
- MIC (μg/mL) K. pneumonia ([4]; Klebsiella pneumonia, 96-well plate, 5×10^5 CFU/mL, 37° C., 10 h): 12.5 µg/mL
- MIC (μg/mL) E. cloacae ([5]; Enterobacter cloacae, 96-well plate, 5×10^5 CFU/mL, 37° C., 10 h): 25 µg/mL
- MIC (μg/mL) A. hydrophila ([6]; Aeromonas hydrophila, 96-well plate, 5×10^5 CFU/mL, 37° C., 10 h): 12.5 µg/mL
- MIC (μg/mL) C. diversus ([7]; Citrobacter diversus, 96-well plate, 5×10^5 CFU/mL, 37° C., 10 h): 50 µg/mL
- MIC (μg/mL) M. catarrhalis ([8]; Moraxella catarrhalis, 96-well plate, 5×10^5 CFU/mL, 37° C., 10 h): 12.5 µg/mL
- MIC (μg/mL) P. mirabilis ([9]; Proteus mirabilis, 96-well plate, 5×10^5 CFU/mL, 37° C., 10 h): 25 µg/mL
- MIC (μg/mL) P. vulgaris ([10]; Proteus vulgaris, 96-well plate, 5×10^5 CFU/mL, 37° C., 10 h): 50 µg/mL
- MIC (μg/mL) S. marcescens ([11]; Serratia marcescens, 96-well plate, 5×10^5 CFU/mL, 37° C., 10 h): 12.5 µg/mL

Substance: PRT1020 (SRQTCANNRHQCSVHAECRDYATGFCCSCVAGYTGNGRQCV; listed as Homo sapiens)
- MIC [1]: 12.5 mg/L
- MIC ([2]; 10 h cultivation at 37° C.): 12.5 mg/L
- MIC [3, 13]: 12.5 mg/L
- MIC [4, 14]: 25 mg/L
- MIC [5, 15]: 12.5 mg/L
- MIC [6, 16]: 12.5 mg/L
- MIC [7, 17]: 12.5 mg/L
- MIC [8, 18]: 12.5 mg/L
- MIC [9, 19]: 12.5 mg/L
- MIC [10, 20]: 50 mg/L
- MIC [11, 21]: 25 mg/L

Substance: PRT1127 (KDGPCVINGSPCQHGGTCVDDEGRASHASCLCPPGFSGNFCE; listed as Homo sapiens)
- MIC [1]: 12.5 mg/L
- MIC E. coli BL21 [2, 22]: 50 mg/L
- MIC P. aeruginosa [3, 22]: 12.5 mg/L
- MIC K. pneumonia [4, 22]: 50 mg/L
- MIC E. cloacae [5, 22]: 12.5 mg/L
- MIC A. hydrophila [6, 22]: 50 mg/L
- MIC C. diversus [7, 22]: 25 mg/L
- MIC M. catarrhalis [8, 22]: 12.5 mg/L
- MIC P. mirabilis [9, 22]: 25 mg/L
- MIC P. vulgaris [10, 22]: 50 mg/L
- MIC S. marcescens [11, 22]: 25 mg/L

Substance: PRT902 (DIDDCRPNPCHNGGSCTDGINTAFCDCLPGFRGTFCE; listed as Homo sapiens)
- MIC [1]: 50 mg/L
- MIC ([2]; 10 h cultivation at 37° C.): 25 mg/L
- MIC [3, 13]: 12.5 mg/L
- MIC [4, 14]: 25 mg/L
- MIC [5, 15]: 50 mg/L
- MIC [6, 16]: 12.5 mg/L
- MIC [7, 17]: 50 mg/L
- MIC [8, 18]: 25 mg/L
- MIC [9, 19]: 12.5 mg/L
- MIC [10, 20]: 25 mg/L
- MIC [11, 21]: 50 mg/L

Substance: PRT744 (GWNECASSNGHCSHLCLAVPVGGFVCGCPAHYSLNADNRTCS; listed as Homo sapiens)
- MIC [1]: 12.5 mg/L
- MIC (μg/mL) E. coli BL21 ([2]; 10 h cultivation at 37° C., 5×10^5 CFU/mL): 50 µg/mL
- MIC (μg/mL) P. aeruginosa ([3]; P. aeruginosa, 10 h cultivation at 37° C., 5×10^5 CFU/mL): 12.5 µg/mL
- MIC (μg/mL) K. pneumonia ([4]; K. pneumonia, 10 h cultivation at 37° C., 5×10^5 CFU/mL): 50 µg/mL
- MIC (μg/mL) E. cloacae ([5]; E. cloacae, 10 h cultivation at 37° C., 5×10^5 CFU/mL): 12.5 µg/mL
- MIC (μg/mL) A. hydrophila ([6]; A. hydrophila, 10 h cultivation at 37° C., 5×10^5 CFU/mL): 50 µg/mL
- MIC (μg/mL) C. diversus ([7]; C. diversus, 10 h cultivation at 37° C., 5×10^5 CFU/mL): 12.5 µg/mL
- MIC (μg/mL) M. catarrhalis ([8]; M. catarrhalis, 10 h cultivation at 37° C., 5×10^5 CFU/mL): 50 µg/mL
- MIC (μg/mL) P. mirabilis ([9]; P. mirabilis, 10 h cultivation at 37° C., 5×10^5 CFU/mL): 25 µg/mL
- MIC (μg/mL) P. vulgaris ([10]; P. vulgaris, 10 h cultivation at 37° C., 5×10^5 CFU/mL): 25 µg/mL
- MIC (μg/mL) S. marcescens ([11]; S. marcescens, 10 h cultivation at 37° C., 5×10^5 CFU/mL): 12.5 µg/mL

Substance: PRT460 (DRDECSGGPSPCSHACLNAPGRFSCTCPTGFALAWDDRNCR; listed as Homo sapiens)
- MIC [1]: 50 mg/L
- MIC against E. coli BL21 [2, 12]: 25 mg/L
- MIC against P. aeruginosa [3, 12]: 12.5 mg/L
- MIC against K. pneumonia [4, 12]: 25 mg/L
- MIC against E. cloacae [5, 12]: 50 mg/L
- MIC against A. hydrophila [6, 12]: 12.5 mg/L
- MIC against C. diversus [7, 12]: 50 mg/L
- MIC against M. catarrhalis [8, 12]: 25 mg/L
- MIC against P. mirabilis [9, 12]: 12.5 mg/L
- MIC against P. vulgaris [10, 12]: 50 mg/L
- MIC against S. marcescens [11, 12]: 12.5 mg/L

Substance: PRT691 (DINECDEAEAASPLCVNARCLNTDGSFRCICRPGFAPTHQPHHCA; listed as Homo sapiens)
- MIC [1]: 25 mg/L
- MIC E. coli BL21 [2, 12]: 50 mg/L
- MIC P. aeruginosa [3, 12]: 12.5 mg/L
- MIC K. pneumonia [4, 12]: 50 mg/L
- MIC E. cloacae [5, 12]: 25 mg/L
- MIC A. hydrophila [6, 12]: 12.5 mg/L
- MIC C. diversus [7, 12]: 50 mg/L
- MIC M. catarrhalis [8, 12]: 12.5 mg/L
- MIC P. mirabilis [9, 12]: 25 mg/L
- MIC P. vulgaris [10, 12]: 50 mg/L
- MIC S. marcescens [11, 12]: 12.5 mg/L
